Measured values taken from patent publication EP1077967B1, “BIPHENYL OXO-ACETIC ACIDS USEFUL IN THE TREATMENT OF INSULIN RESISTANCE AND HYPERGLYCEMIA” (Wyeth, priority 1998, dated 1999).
Structures can show the parent of a compound that is named as a salt.

These molecules were tested against T1, Human recombinant PTP1B (Homo sapiens, UniProt P18031) (assay: Inhibition of tri-phosphorylated insulin receptor dodecaphosphopeptide dephosphorylation by hPTP1B (malachite green)). Conditions: not given.
T1 construct: made in house
T1 sequence (P18031 1-435): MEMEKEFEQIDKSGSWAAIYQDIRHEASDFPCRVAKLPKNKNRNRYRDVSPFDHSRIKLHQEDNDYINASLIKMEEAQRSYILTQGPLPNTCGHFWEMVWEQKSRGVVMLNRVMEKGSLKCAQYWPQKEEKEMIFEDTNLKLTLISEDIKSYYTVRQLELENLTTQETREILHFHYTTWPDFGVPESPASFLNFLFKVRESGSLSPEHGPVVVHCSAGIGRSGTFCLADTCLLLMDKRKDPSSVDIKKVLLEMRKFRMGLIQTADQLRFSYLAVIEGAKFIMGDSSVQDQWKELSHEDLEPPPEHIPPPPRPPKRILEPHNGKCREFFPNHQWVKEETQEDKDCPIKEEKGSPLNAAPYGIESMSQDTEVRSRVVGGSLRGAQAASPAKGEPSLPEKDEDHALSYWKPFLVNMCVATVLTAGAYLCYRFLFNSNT
Format: biochemical
In the case of `O=C(O)[C@@H](Cc1ccccc1)Oc1ccc(-c2ccc(-c3c(Cc4ccccc4)oc4ccccc34)cc2)cc1[N+](=O)[O-]` [Example 68, (2R)-2-[4'-(2-Benzyl-benzofuarn-3-yl)-3-nitro-biphenyl-4-yloxy]-3-phenyl-propionic acid], the IC50 is reported as 231 nM.

Same assay, conditions: compound at 2.5 uM; read-out: change of PTP1B activity (percent of phosphatase control)
`CC(=O)c1ccc(-c2ccc(-c3ccc(O[C@@H](Cc4ccccc4)C(=O)O)cc3)cc2)s1` [Example 71, (2S)-2-[4'-(5-acetyl-thiophen-2-yl)-biphenyl-4-yloxy]-3-phenyl-propionic acid sodium salt] gave an inhibition at 2.5 µM of 43%.

Same assay, conditions: recombinant PTP1B, dodecaphosphopeptide substrate
Molecule `COc1ccc(-c2cc(-c3ccc(-c4c(Cc5ccccc5)sc5ccccc45)cc3)cc(Br)c2OCC(=O)O)cc1OC` [Example 56, [4-(2-benzyl-benzo[b]-thiophen-3-yl)-5'-bromo-3",4"-dimethoxy[1,1';3',1"-terphenyl]-4'-yloxy]-acetic acid] has an IC50 of 47 nM. Molecule `Oc1ccc(-c2ccc(-c3c(Cc4ccccc4)sc4ccccc34)cc2)cc1Br` [Example 34, 4'-(2-Benzyl-benzo[b]thiophen-3-yl)-3-bromo-biphenyl-4-ol] has an IC50 of 1070 nM. In the case of `O=C(O)C(Cc1ccccc1)Oc1ccc(-c2ccc(-c3c(Cc4nccs4)sc4ccccc34)cc2)cc1` (stereo not drawn) [Example 30, 3-Phenyl-2-[4'-(2-thiazole-2-ylmethyl-benzo[b]thiophene-3-yl)-biphenyl-4-yloxy]-propionic acid], the IC50 is reported as 1160 nM. Molecule `CC(C)C[C@@H](Oc1c(Br)cc(-c2ccc(-c3c(Cc4ccccc4)oc4ccccc34)cc2)cc1Br)C(=O)O` [Example 51, (2R)-2-[4'-(2-benzyl-benzofuran-3-yl)-3,5-dibromo-biphenyl-4-yloxy]-4-methyl-pentanoic acid] has an IC50 of 54 nM. Work on `CCCCC(Oc1c(Br)cc(-c2ccc(-c3c(Cc4ccccc4)oc4ccccc34)cc2)cc1Br)C(=O)O` (stereo not drawn) [Example 52, 2-[4'-(2-benzyl-benzofuran-3-yl)-3,5-dibromo-biphenyl-4-yloxy]-hexanoic acid] yielded an IC50 of 52 nM. In the case of `COc1cc(-c2cc(-c3ccc(-c4c(Cc5ccccc5)sc5ccccc45)cc3)ccc2OCC(=O)O)cc(OC)c1OC` [Example 61], the IC50 is reported as 100 nM. In the case of `COC(=O)[C@@H](CCNC(=O)c1ccccc1C(=O)O)Oc1c(Br)cc(-c2ccc(-c3c(Cc4ccccc4)sc4ccccc34)cc2)cc1Br` [Example 44, N-{(3R)-3-[4'-(2-benzyl-benzo[b]thiophen-3-yl)-3,5-dibromo-biphenyl-4-yloxy]-3-methoxycarbonyl-propyl]-phthalamic acid], the IC50 is reported as 54 nM. `COc1ccc(-c2cc(-c3ccc(-c4c(Cc5ccccc5)sc5ccccc45)cc3)ccc2OCC(=O)O)cc1OC` [Example 60] was tested, and the IC50 was 71 nM. For `O=C(O)[C@H](Cc1ccccc1)Oc1ccc(-c2ccc(-c3c(Cc4ccccc4)oc4ccccc34)cc2)cc1Br` [Example 50, (2S)-2-[4'-(2-benzyl-benzofuran-3-yl)-3-bromo-biphenyl-4-yloxy]-3-phenyl-propionic acid], the IC50 was 56 nM. With `COc1cccc(-c2cc(-c3ccc(-c4c(Cc5ccccc5)sc5ccccc45)cc3)cc(-c3cccc(OC)c3)c2OCC(=O)O)c1` [Example 58] the IC50 was 25 nM. `O=C(O)[C@H](Cc1ccccc1)Oc1c(Br)cc(-c2ccc(-c3c(Cc4ccccc4)oc4ccccc34)cc2)cc1Br` [Example 49, (2S)-2-[4'-(2-benzyl-benzofuran-3-yl)-3,5-dibromo-biphenyl-4-yloxy]-3-phenyl-propionic acid] was tested, and the IC50 was 38 nM. `O=C(O)[C@@H](Cc1ccccc1)Oc1ccc(-c2ccc(-c3c(Cc4ccccn4)sc4ccccc34)cc2)cc1` [Example 33, (2R)-3-phenyl-2-[4'-(2-pyridin-2-ylmethyl-benzo[b]thiophene-3-yl)-biphenyl-4-yloxy]-propionic acid] showed an IC50 of 1550 nM. With `CC[C@H](Oc1c(Br)cc(-c2ccc(-c3c(Cc4ccccc4)oc4ccccc34)cc2)cc1Br)C(=O)O` [Example 53, (2S)-2-[4'-(2-benzyl-benzofuran-3-yl)-3,5-dibromo-biphenyl-4-yloxy]-butyric acid] the IC50 was 133 nM.
